Assay results from patent US5324742A, “Aldose reductase inhibitor obtained from Crucibulum sp. RF-3817” (Shionogi & Co., Ltd., priority 1990, dated 1994).
“Also recorded” adds a separate entry of the source.

Tests used:
[1] = molecular target: T1, aldose reductase (Rattus norvegicus, UniProt P07943); assay: Aldose reductase-inhibiting activity (rat lens homogenate supernatant, D,L-glyceroaldehyde substrate, TPNH coenzyme); format: biochemical; conditions: 10 mM D,L-glyceroaldehyde, 0.1 mM TPNH, pH 6.2, 25° C., absorbance at 340 nm
T1 construct: A homogenate of rat lenses was used as an enzyme source; from tissue; host or cells: rat lens, supernatant of the homogenate after centrifugation
Protocol: Aldose Reductase-Inhibiting Activity
A homogenate of rat lenses was used as an enzyme source, glyceroaldehyde as a substrate, and TPNH as a coenzyme. To a mixture of 0.1M phosphate buffer (pH 6.2), 0.4M sodium sulfate, 0.1 mM TPNH (reduced form of triphosphopyridine nucleotide), and 10 mM D, L-glyceroaldehyde, a supernatant obtained from the homogenate of rat lenses by centrifugation was added as an enzyme source, so that the change in absorbance at 340 nm became 0.02 units per minute at 25° C. The change in absorbance at 340 nm for initial one minute was measured at 25° C., and the inhibiting activity was determined.

[2] = Solubility in solvents; format: physicochemical; conditions: for State: solubility in organic solvents: organic solvents such as ethyl acetate, acetone, methanol, and ethanol

| SMILES | IC50 [1] | State: solubility in organic solvents [2] | Solubility ([2]; solvents: ethyl acetate, DMSO, methanol, ethanol, chloroform, ether, petroleum ether) |
| --- | --- | --- | --- |
| CC(C(=O)O)C1Cc2c(cc3c(c2O)C(=O)NC3=O)O1 (centres unmarked) [RD-01-C1] |  | soluble |  |
| CC(C(=O)O)C1Cc2c(cc3c(c2O)C(=O)N(C(C)C(=O)O)C3=O)O1 (centres unmarked) [RD-01-C3] |  | soluble |  |

Further lines, with some results ahead:

| IC50 [1] | State: solubility in organic solvents [2] | SMILES | Solubility ([2]; solvents: ethyl acetate, DMSO, methanol, ethanol, chloroform, ether, petroleum ether) |
| --- | --- | --- | --- |
| 11.9 µM | soluble | CC(C(=O)O)C1Cc2c(cc3c(c2O)CN(C(CCC(=O)O)C(=O)O)C3=O)O1 (centres unmarked) [RD-01-A3] |  |
|  | soluble | CC(C(=O)O)C1Cc2c(cc3c(c2O)CN(CC(=O)O)C3=O)O1 (centres unmarked) [RD-01-A4] | soluble in ethyl acetate, DMSO, methanol, and ethanol; also recorded: slightly soluble in chloroform and ether; also recorded: insoluble in petroleum ether |
|  | soluble | CC(C(=O)O)C1Cc2c(cc3c(c2O)CN(C(C)C(=O)O)C3=O)O1 (centres unmarked) [RD-01-A7] |  |
|  | soluble | CC(C(=O)O)C1Cc2c(cc3c(c2O)C(=O)N(CC(=O)O)C3=O)O1 (centres unmarked) [RD-01-C2] |  |
